Laboratory results published in the NIST ThermoML archive (doi:10.1016/j.fluid.2015.03.031).

Assay: cn = amount concentration of the nth substance listed, in mol/dm3
Settings: 101 kPa, Liquid; for viscosity: Capillary tube (Ostwald / Ubbelohde) method; for mass density: Pycnometric method

NCCCC[C@H](N)C(=O)[O-].[K+] [potassium L-lysinate] + O
Settings	mass density, 298 K [kg/m3]	mass density, 308 K [kg/m3]	mass density, 313 K [kg/m3]	viscosity, 298 K [mPa·s]	viscosity, 308 K [mPa·s]	viscosity, 313 K [mPa·s]
c1 = 0.5	1038.6	1036.3	1030.7	1.162	0.9848	0.894
c1 = 1.5	1108.9	1107.5	1105.1	2.284	1.905	1.686
c1 = 2.5	1173.8	1171.1	1168.8	3.165	2.653	2.416
